Read-outs that look alike come from different tables or passages of the source.

These results are taken from patent US20060241027A1, “Hiv inhibiting proteins” (priority 2002, published 2006).

The target of data set [1] is HIV-1 gp41 (transmembrane subunit of the HIV-1 envelope glycoprotein) (HIV-1) (UniProt P03377). As to the kind of experiment: cell-based or functional assay.
For the next data set, the system named is HIV-2. Conditions: cited from earlier work.
The subject of the next data set is SIV. Conditions: cited from earlier work.
Data set [2] relates to HIV-1. Conditions: low nanomolar range; cited from earlier work.
The subject of data set [3] is HIV-1. Conditions: cited from earlier work.
For data set [4] the following is noted: cited from earlier work; for terminal half-life: humans.
The conditions of data set [5]: primates; cited from earlier work.
The test system of a further data set is HIV. Conditions: 12.5 mg/day to 200 mg/day (Gulick, 2002); cited from earlier work.

In turn, “C-terminal albumin-(GGS)4GG-T-1249 fusion protein, produced in the standard (PMT1) yeast strain (from UniProt P02768 25-609)” had a 50% inhibitory concentration (IC50), HIV-1 cell-cell fusion assay on Jurkat cells in data set [1] of 0.01 to 0.1 µM.

With enfuvirtide, in the data set with HIV-2, the “activity against HIV-2” value is “does not inhibit”. Also, in the data set with SIV, the “activity against SIV” value was “does not inhibit”. Also, the “antiviral activity in cell-cell fusion assays” value in the data set on HIV-1 [2] is 0.2 to 2 nM. Also, the “activity against HIV-1” value in the data set with HIV-1 [3] is listed as “active against several clades of HIV-1”. The plasma half-life entry in data set [4] (clinical trials, typical dose 50 mg twice daily) is listed as “about 1.8 hours”. In addition, the terminal half-life is 3.46 h in data set [4] (45 mg subcutaneous dose (Zhang X et al., 2002)) and 4.35 h in data set [4] (180 mg subcutaneous dose (Zhang X et al., 2002)).

Take “WQEWEQKITALLEQAQIQQEKNEYELQKLDKWASLWEWF [T-1249]”: in the data set with HIV-2, the “activity against HIV-2” value was “active”. In addition, the “activity against SIV” value in the data set on SIV is on record as “active”. Also, in data set [5], the “half-life / AUC compared with T-20” value was “twofold increased AUC”. Moreover, the “suppression of HIV” value with HIV is recorded as “dose-related suppression of HIV”. Also, in the data set with HIV-1 [3], the “activity against HIV-1” value is “active”.

In data set [1], “C-terminal albumin-(GGS)4GG-T-20 fusion protein, expressed in the pmt1 gene deficient yeast strain (from UniProt P02768 25-609)” registered a 50% inhibitory concentration, HIV-1 cell-cell fusion assay on Jurkat cells of 4 to 13 nM.
